Here are results for two molecules from US4245106A, “Process for the preparation of 1-alkyl-3-aryl-4-pyrazolecarboxylates” (Monsanto Company, priority 1979, dated 1981).

Common to all, as to assay type: in vivo
For assay [1], the system named is Barnyard grass. Put plainly: pre-emergent herbicidal activity test. As for the experimental part:
(§1) Table II summarizes results of tests conducted to determine the pre-emergent as well as the post-emergent herbicidal activity of the compounds. The pre-emergent test was conducted as follows:
(§2) A good grade of top soil was placed in aluminum pans and compacted to a depth of three-eighths to one-half inch from the top of the pan. On the top of the soil was placed a predetermined number of seeds or vegetative propagules of various plant species. The soil required to level fill the pans after seeding or adding vegetative propagules was weighed into a pan. A known amount of the active ingredient applied in a solvent or as a wettable powder and the soil were thoroughly mixed, and used as a cover layer for prepared pans. After treatment the pans were moved into a greenhouse bench where they were watered from below as needed to give adequate moisture for germination and growth.
(§3) A herbicial rating code was used to signify the extent of phytotoxicity of each species. The rating are defined as follows: […]

Assay [2] relates to Bromus tectorum. The assay can be described thus: pre-emergent herbicidal activity test. The method, then:
as §1, §2, §3

In assay [3] the test system is Canada Thistle. Put plainly: pre-emergent herbicidal activity test. The method, then: as §1, §2, §3
In assay [4] the test system is Cocklebur. Put plainly: pre-emergent herbicidal activity test. The method, then: as §1, §2, §3
The test system of assay [5] is Johnsongrass. The assay can be described thus: pre-emergent herbicidal activity test. The method, then:
as §1, §2, §3

Assay [6] deals with Lambsquarter. The assay can be described thus: pre-emergent herbicidal activity test. As for the experimental part: as §1, §2, §3
The test system of assay [7] is Morningglory. Put plainly: pre-emergent herbicidal activity test. The method, then: as §1, §2, §3
The subject of assay [8] is Nutsedge. Put plainly: pre-emergent herbicidal activity test. The method, then: as §1, §2, §3
Assay [9] relates to Quackgrass. Put plainly: pre-emergent herbicidal activity test. As for the experimental part: as §1, §2, §3
Assay [10] relates to Smartweed. Put plainly: pre-emergent herbicidal activity test. The method, then: as §1, §2, §3
Assay [11] relates to Velvetleaf. The assay can be described thus: pre-emergent herbicidal activity test. As for the experimental part: as §1, §2, §3
The subject of assay [12] is Barnyard grass. Put plainly: post-emergent herbicidal activity test. The method, then:
(§4) The post-emergent tests were conducted as follows. The active ingredients are applied in spray form to two or three-week old specimens of various plant species. The spray, a solution or wettable powder suspension containing the appropriate rate of active ingredient to give the desired test rate and a surfactant, is applied to the plants. The treated plants are placed in a greenhouse and unless otherwise noted approximately four weeks later the effects are observed and recorded.

The subject of assay [13] is Bromus tectorum. Put plainly: post-emergent herbicidal activity test. The method, then:
as §4

Assay [14] has as its system Canada Thistle. Put plainly: post-emergent herbicidal activity test. The method, then:
as §4

Assay [15] relates to Cocklebur. The assay can be described thus: post-emergent herbicidal activity test. As for the experimental part:
as §4

For assay [16], the system named is Johnsongrass. The assay can be described thus: post-emergent herbicidal activity test. As for the experimental part:
as §4

For assay [17], the system named is Lambsquarter. The assay can be described thus: post-emergent herbicidal activity test. As for the experimental part: as §4
Assay [18] concerns Morningglory. The assay can be described thus: post-emergent herbicidal activity test. As for the experimental part:
as §4

The subject of assay [19] is Nutsedge. The assay can be described thus: post-emergent herbicidal activity test. The method, then:
as §4

The subject of assay [20] is Quackgrass. Put plainly: post-emergent herbicidal activity test. As for the experimental part:
as §4

Assay [21] concerns Smartweed. Put plainly: post-emergent herbicidal activity test. The method, then: as §4
Assay [22] deals with Velvetleaf. Put plainly: post-emergent herbicidal activity test. As for the experimental part: as §4
The mark [23] stands for this setting: 11.2 Kg/Ha, approximately 28 days after seeding and treating.
[24] abbreviates: 11.2 Kg/Ha, approximately four weeks later.
The mark [25] stands for this setting: *11.2 Kg/Ha, observed approximately 14 days after treatment.
Further: ranges in brackets are in %.

As for `CCC(C)OC(=O)c1cn(C)nc1-c1cccc(C(F)(F)F)c1` (centres unmarked) [Example 20], in the assay with Barnyard grass [1] (setting [23]), the “Pre-Emergent herbicidal rating, K Barnyard grass” value is listed as 3 (75-100). The “Pre-Emergent herbicidal rating, J Bromus tectorum” value in the assay with Bromus tectorum [2] (setting [23]) is reported as 0 (0-24). For the same molecule, the “Pre-Emergent herbicidal rating, A Canada Thistle” value in the assay with Canada Thistle [3] (setting [23]) was 0 (0-24). In addition, in the assay with Cocklebur [4] (setting [23]), the “Pre-Emergent herbicidal rating, B Cocklebur” value is 0 (0-24). In addition, in the assay on Johnsongrass [5] (setting [23]), the “Pre-Emergent herbicidal rating, I Johnsongrass” value is recorded as 0 (0-24). Further, the “Pre-Emergent herbicidal rating, E Lambsquarter” value in the assay with Lambsquarter [6] (setting [23]) was 3 (75-100). Further, the “Pre-Emergent herbicidal rating, D Morningglory” value with Morningglory [7] (setting [23]) is on record as 0 (0-24). The “Pre-Emergent herbicidal rating, G Nutsedge” value in the assay with Nutsedge [8] (setting [23]) was 0 (0-24). For the same molecule, the “Pre-Emergent herbicidal rating, H Quackgrass” value in the assay with Quackgrass [9] (setting [23]) was 0 (0-24). The “Pre-Emergent herbicidal rating, F Smartweed” value in the assay with Smartweed [10] (setting [23]) is listed as 1 (25-49). In the assay on Velvetleaf [11] (setting [23]), the “Pre-Emergent herbicidal rating, C Velvetleaf” value is 0 (0-24). For the same molecule, the “Post-Emergent herbicidal rating, K Barnyard grass” value in the assay with Barnyard grass [12] (setting [24]) was 0 (0-24). The “Post-Emergent herbicidal rating, J Bromus tectorum” value in the assay on Bromus tectorum [13] (setting [24]) was 0 (0-24). Further, in the assay on Canada Thistle [14] (setting [24]), the “Post-Emergent herbicidal rating, A Canada Thistle” value is recorded as 1 (25-49). The “Post-Emergent herbicidal rating, B Cocklebur” value with Cocklebur [15] (setting [24]) was 1 (25-49). In addition, the “Post-Emergent herbicidal rating, I Johnsongrass” value in the assay with Johnsongrass [16] (setting [24]) is on record as 1 (25-49). In addition, the “Post-Emergent herbicidal rating, E Lambsquarter” value in the assay on Lambsquarter [17] (setting [24]) was 2 (50-74). The “Post-Emergent herbicidal rating, D Morningglory” value in the assay with Morningglory [18] (setting [24]) is given as 0 (0-24). For the same molecule, the “Post-Emergent herbicidal rating, G Nutsedge” value with Nutsedge [19] (setting [24]) is 0 (0-24). Besides, in the assay on Quackgrass [20] (setting [24]), the “Post-Emergent herbicidal rating, H Quackgrass” value is 0 (0-24). Besides, the “Post-Emergent herbicidal rating, F Smartweed” value in the assay on Smartweed [21] (setting [24]) is listed as 0 (0-24). Also, the “Post-Emergent herbicidal rating, C Velvetleaf” value in the assay with Velvetleaf [22] (setting [24]) was 1 (25-49).

With `CCCCCCOC(=O)c1cn(C)nc1-c1cccc(C(F)(F)F)c1` [Example 21], the “Pre-Emergent herbicidal rating, K Barnyard grass” value in the assay with Barnyard grass [1] (setting [25]) is reported as 1 (25-49). Besides, the “Pre-Emergent herbicidal rating, J Bromus tectorum” value with Bromus tectorum [2] (setting [25]) is reported as 0 (0-24). In addition, the “Pre-Emergent herbicidal rating, A Canada Thistle” value with Canada Thistle [3] (setting [25]) is recorded as 0 (0-24). In addition, the “Pre-Emergent herbicidal rating, B Cocklebur” value with Cocklebur [4] (setting [25]) is listed as 0 (0-24). For the same molecule, the “Pre-Emergent herbicidal rating, I Johnsongrass” value in the assay with Johnsongrass [5] (setting [25]) is listed as 0 (0-24). Besides, in the assay with Lambsquarter [6] (setting [25]), the “Pre-Emergent herbicidal rating, E Lambsquarter” value is recorded as 0 (0-24). Besides, the “Pre-Emergent herbicidal rating, D Morningglory” value in the assay on Morningglory [7] (setting [25]) is recorded as 0 (0-24). Besides, the “Pre-Emergent herbicidal rating, G Nutsedge” value in the assay with Nutsedge [8] (setting [25]) is on record as 0 (0-24). Also, in the assay on Quackgrass [9] (setting [25]), the “Pre-Emergent herbicidal rating, H Quackgrass” value is on record as 0 (0-24). In addition, in the assay on Smartweed [10] (setting [25]), the “Pre-Emergent herbicidal rating, F Smartweed” value is 0 (0-24). Besides, the “Pre-Emergent herbicidal rating, C Velvetleaf” value in the assay with Velvetleaf [11] (setting [25]) is given as 0 (0-24). Also, in the assay with Barnyard grass [12] (setting [25]), the “Post-Emergent herbicidal rating, K Barnyard grass” value was 1 (25-49). Also, the “Post-Emergent herbicidal rating, J Bromus tectorum” value with Bromus tectorum [13] (setting [25]) is on record as 0 (0-24). Besides, the “Post-Emergent herbicidal rating, A Canada Thistle” value with Canada Thistle [14] (setting [25]) is 1 (25-49). For the same molecule, the “Post-Emergent herbicidal rating, B Cocklebur” value with Cocklebur [15] (setting [25]) is listed as 1 (25-49). Further, the “Post-Emergent herbicidal rating, I Johnsongrass” value in the assay with Johnsongrass [16] (setting [25]) is reported as 1 (25-49). Moreover, the “Post-Emergent herbicidal rating, E Lambsquarter” value with Lambsquarter [17] (setting [25]) is listed as 2 (50-74). Moreover, the “Post-Emergent herbicidal rating, D Morningglory” value in the assay on Morningglory [18] (setting [25]) is on record as 1 (25-49). Further, in the assay on Nutsedge [19] (setting [25]), the “Post-Emergent herbicidal rating, G Nutsedge” value was 0 (0-24). For the same molecule, in the assay with Quackgrass [20] (setting [25]), the “Post-Emergent herbicidal rating, H Quackgrass” value is recorded as 0 (0-24). Further, the “Post-Emergent herbicidal rating, F Smartweed” value in the assay on Smartweed [21] (setting [25]) is on record as 1 (25-49). For the same molecule, the “Post-Emergent herbicidal rating, C Velvetleaf” value in the assay on Velvetleaf [22] (setting [25]) is 1 (25-49).
